Measured values: patent publication US20250302972A1, “FORMULATION” (ENA Respiratory Pty Ltd, priority 2021, published 2025)
Values joined by “and” are separate entries in the source; they are usually repeats but may differ in a detail not shown here. Equal values may be shown once.

What was measured:
[1] = Stability IV: formulation pH at each time point; assay type: physicochemical
Experimental: Each compound was formulated in 0.9% w/w saline with addition of 0.1% w/w EDTA at about pH 5. The formulations were stored in the dark under accelerated conditions (40° C./75% RH) and reference formulations were stored at −80° C. At days 0, 9 and 28, samples were analysed by UHPLC and pH was measured.
The remaining ˜1 mL of solution in the clear glass HPLC vials was stored at 40° C./75% RH and was used to measure pH at each time point.
The formulation pH data recorded at each time point are compiled in Table 19. There was a general trend for the pH to increase with time but the effect was not pronounced.

SARS-CoV-2 [2] = assay: A204 efficacy against SARS-CoV-2 in the hamster model - prophylaxis; assay type: in vivo
SARS-CoV-2 [3] = assay: A204 efficacy against SARS-CoV-2 in the hamster model - treatment; assay type: in vivo; details: 10 ug/ml in 100 ul, 8 hours post infection; to 7 dpi
[4] = Solubility in deionised water; assay type: physicochemical; details: DI water; read-out: concentration at which fully soluble in deionised (DI) water
Experimental: All spray drying feed solutions were prepared in deionised (DI) water. […] All other excipient components (mannitol, trehalose and HPMC) were also shown readily soluble in the DI water.

human TLR2 (hTLR2) [5] = target: T1, human TLR2 (hTLR2) (Homo sapiens, UniProt O60603); assay: Activation of human TLR2 IV: HEK-BLUE-hTLR2 cells; assay type: cell-based; details: FIG. 4
T1 construct: host or cells: HEK293 (HEK-BLUE-hTLR2)
T1 sequence (O60603 21-784): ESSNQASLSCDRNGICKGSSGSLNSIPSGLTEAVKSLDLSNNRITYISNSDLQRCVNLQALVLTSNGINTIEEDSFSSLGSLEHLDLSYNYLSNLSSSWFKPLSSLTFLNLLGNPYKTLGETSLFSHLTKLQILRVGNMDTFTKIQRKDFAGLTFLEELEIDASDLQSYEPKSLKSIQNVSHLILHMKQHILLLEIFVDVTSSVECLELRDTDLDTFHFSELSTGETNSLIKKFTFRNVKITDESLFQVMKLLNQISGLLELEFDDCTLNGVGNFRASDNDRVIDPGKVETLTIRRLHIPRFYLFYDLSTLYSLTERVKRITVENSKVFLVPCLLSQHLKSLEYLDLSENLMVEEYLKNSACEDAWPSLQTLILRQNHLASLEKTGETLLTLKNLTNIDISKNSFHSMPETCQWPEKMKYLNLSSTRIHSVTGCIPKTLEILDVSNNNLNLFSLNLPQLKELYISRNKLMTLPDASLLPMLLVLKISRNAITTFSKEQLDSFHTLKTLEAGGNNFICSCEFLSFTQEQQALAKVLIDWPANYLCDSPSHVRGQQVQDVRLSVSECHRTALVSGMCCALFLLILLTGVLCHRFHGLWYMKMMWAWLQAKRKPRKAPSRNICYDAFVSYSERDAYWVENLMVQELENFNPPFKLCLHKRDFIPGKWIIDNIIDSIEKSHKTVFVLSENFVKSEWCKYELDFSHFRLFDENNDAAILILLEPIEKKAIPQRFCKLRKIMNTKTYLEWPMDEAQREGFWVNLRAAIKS
T1 sequence (Q9Y2C9 32-796 partner): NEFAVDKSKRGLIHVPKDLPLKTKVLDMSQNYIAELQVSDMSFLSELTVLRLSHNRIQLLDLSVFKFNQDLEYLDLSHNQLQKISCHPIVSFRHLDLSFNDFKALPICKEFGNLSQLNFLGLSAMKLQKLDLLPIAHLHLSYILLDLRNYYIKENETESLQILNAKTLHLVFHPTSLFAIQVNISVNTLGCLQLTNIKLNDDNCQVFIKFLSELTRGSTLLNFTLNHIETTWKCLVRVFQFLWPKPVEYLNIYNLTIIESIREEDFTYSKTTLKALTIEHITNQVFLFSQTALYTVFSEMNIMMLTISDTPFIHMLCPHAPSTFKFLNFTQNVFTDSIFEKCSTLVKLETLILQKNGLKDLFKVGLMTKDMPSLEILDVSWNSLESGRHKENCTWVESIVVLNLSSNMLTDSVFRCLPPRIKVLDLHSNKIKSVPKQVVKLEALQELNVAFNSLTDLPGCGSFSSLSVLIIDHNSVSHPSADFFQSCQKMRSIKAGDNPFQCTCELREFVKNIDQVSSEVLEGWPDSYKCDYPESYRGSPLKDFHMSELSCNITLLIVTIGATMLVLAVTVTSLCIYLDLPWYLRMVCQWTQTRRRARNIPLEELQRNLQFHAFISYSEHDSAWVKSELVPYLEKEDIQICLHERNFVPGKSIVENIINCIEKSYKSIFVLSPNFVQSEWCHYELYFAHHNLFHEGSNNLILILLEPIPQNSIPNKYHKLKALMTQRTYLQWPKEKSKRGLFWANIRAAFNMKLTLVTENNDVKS
Experimental: HEK-BLUE-hTLR2 cells are designed for studying the stimulation of human TLR2 (hTLR2) by monitoring the activation of NF-kB. HEK-BLUE-hTLR2 cells are obtained by co-transfection of the hTLR2 and SEAP (secreted embryonic alkaline phosphatase) reporter genes into HEK293 cells. Stimulation with a TLR2 ligand activates NF-kB which induces the production of SEAP.
HEK-BLUE-hTLR2 cells were purchased from InvivoGen (San Diego, CA, USA). Cells were grown in DMEM supplemented with 10% FCS, 100 U/ml penicillin, 100 ug/ml streptomycin and 2 mM L-glutamine, 100 μg/mL Normocin in the presence of selection antibiotic purchased from InvivoGen and passaged when 70% confluence was reached per manufacturer's recommendation. […]

HEK-Blue Null1 cells = assay: HEK-Blue Null1 control cell line (control for human TLR2); assay type: cell-based; details: TLR2-free control cells
Experimental: (§1) The secreted embryonic alkaline phosphatase (SEAP) reporter is under the control of a promoter inducible by the transcription factor NF-κB. This reporter gene allows the monitoring of signaling through the TLR, based on the activation of NF-κB. In a 96-well plate (200 μL total volume) containing the appropriate cells (50,000-75,000 cells/well), 20 μL of the test article or the positive control ligand (HKLC) is added to the wells. The media added to the wells is designed for the detection of NF-κB induced SEAP expression. After a 16-24-hour incubation the optical density (OD) is read at 650 nm on a Molecular Devices SpectraMax 340PC absorbance detector.

mouse TLR2 = target: T2, mouse TLR2 (Mus musculus, UniProt Q9QUN7); assay: HEK-Blue mTLR2 Dose Response (NF-κB SEAP reporter); assay type: cell-based
T2 construct: expressed in transfected cells; host or cells: HEK-Blue mTLR2
T2 sequence (Q9QUN7 25-784): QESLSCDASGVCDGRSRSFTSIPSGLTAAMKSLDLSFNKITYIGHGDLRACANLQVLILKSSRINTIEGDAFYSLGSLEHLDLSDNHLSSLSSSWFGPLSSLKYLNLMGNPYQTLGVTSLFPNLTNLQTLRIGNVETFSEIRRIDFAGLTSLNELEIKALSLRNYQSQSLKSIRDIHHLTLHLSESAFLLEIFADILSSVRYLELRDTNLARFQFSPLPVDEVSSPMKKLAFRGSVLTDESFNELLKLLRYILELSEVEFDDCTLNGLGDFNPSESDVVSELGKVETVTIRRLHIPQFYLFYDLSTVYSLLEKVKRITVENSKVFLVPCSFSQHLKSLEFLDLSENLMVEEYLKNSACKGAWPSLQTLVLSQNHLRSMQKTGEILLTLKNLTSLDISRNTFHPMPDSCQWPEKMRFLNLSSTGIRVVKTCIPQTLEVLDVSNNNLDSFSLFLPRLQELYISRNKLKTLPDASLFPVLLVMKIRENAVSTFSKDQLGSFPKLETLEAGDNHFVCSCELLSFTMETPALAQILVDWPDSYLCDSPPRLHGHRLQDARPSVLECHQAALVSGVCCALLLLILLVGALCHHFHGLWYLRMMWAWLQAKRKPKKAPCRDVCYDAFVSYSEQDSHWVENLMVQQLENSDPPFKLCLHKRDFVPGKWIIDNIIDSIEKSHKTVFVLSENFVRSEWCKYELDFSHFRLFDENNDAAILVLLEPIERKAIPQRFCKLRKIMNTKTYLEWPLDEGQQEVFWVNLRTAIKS
T2 sequence (Q9Y2C9 32-796 partner): as the sequence (Q9Y2C9 32-796 partner) above
Experimental: (§2) Toll-Like Receptor (TLR) stimulation is tested by assessing NF-κB activation in the TLR expressing cell lines. HEK-Blue h/mTLR2 cells have been stably transfected with human or mouse TLR2 and CD14. The activity of the test articles are tested on human and mouse TLR2, as potential agonists. The test articles are evaluated at seven concentrations and compared to control ligands (see list below). These steps are performed in triplicate.
A 5 μg/mL working stock was then prepared for each compound from the 20 μg/mL dilution in sterile PBS. Starting from the 5 μg/mL working stock, a series of six 1:4 serial dilutions were made by mixing 100 μL of the previous highest dilution with 300 μL sterile PBS.
as §1

human TLR2 = target: T3, human TLR2 (Homo sapiens, UniProt O60603); assay: HEK-Blue hTLR2 Dose Response (NF-κB SEAP reporter); assay type: cell-based
T3 construct: expressed in transfected cells; host or cells: HEK-Blue hTLR2
T3 sequence (O60603 21-784): as the sequence (O60603 21-784) above
T3 sequence (Q9Y2C9 32-796 partner): as the sequence (Q9Y2C9 32-796 partner) above
Experimental: as §2
[…] Starting from the 5 μg/mL working stock, a series of six 1:4 serial dilutions were made by mixing 100 μL of the previous highest dilution with 300 μL sterile PBS.
as §1

human TLR2 (hTLR2) [6] = target: T1, human TLR2 (hTLR2); assay: Activation of human TLR2 II: HEK-BLUE-hTLR2 SEAP reporter assay; assay type: cell-based
HEK-Blue Null2 cells = assay: HEK-Blue Null2 control cell line (control for mouse TLR2); assay type: cell-based; details: TLR2-free control cells
Experimental: as §1

In the case of `CCCCCCCCCCCCCCCC(=O)OCC[C@H](CSC[C@H](N)C(=O)N[C@@H](CO)C(=O)NCCOCCOCCOCCOCCOCCOCCOCCOCCOCCOCCOCCOCCOCCOCCOCCOCCOCCOCCOCCOCCOCCOCCOCCOCCOCCOCCOCCOCCC(=O)NCC(N)=O)OC(=O)CCCCCCCCCCCCCCC` [A204], the “formulation pH” value ([1]; 0-days) is reported as 5.0, the “formulation pH” value ([1]; 9-days, 40° C./75% RH) is reported as 5.2 and the “formulation pH” value ([1]; 28-days, 40° C./75% RH) is reported as 5.2. The “weight change during infection” value (SARS-CoV-2 [2]; 50 ug/ml in 100 ul intranasal 24 hours prior to infection) was “lost no weight”, the “lung viral loads versus mock treated animals” value (SARS-CoV-2 [2]; 7 dpi) was “slightly lower” and the “viral RNA level versus mock treated animals (fold lower)” value (SARS-CoV-2 [2]; throat swabs, 2 days post infection, RT-qPCR) was 32 fold. The “recovery of weight loss” value (SARS-CoV-2 [3]) was “recovered weight loss more rapidly than PBS treated”, the solubility [4] was ≤ 2000 µg/mL and the “activity at TLR2” value (human TLR2 (hTLR2) [5]) was “significant activity at TLR2”.

For `CCCCCCCCCCCCCCC(C)C(=O)OCC[C@H](CSC[C@H](N)C(=O)N[C@@H](CO)C(=O)NCCOCCOCCOCCOCCOCCOCCOCCOCCOCCOCCOCCOCCOCCOCCOCCOCCOCCOCCOCCOCCOCCOCCOCCOCCOCCOCCOCCOCCC(=O)NCC(N)=O)OC(=O)C(C)CCCCCCCCCCCCCC` (some centres unmarked) [B12], the “formulation pH” value ([1]; 0-days) was 5.6, the “formulation pH” value ([1]; 9-days, 40° C./75% RH) was 5.7 and the “formulation pH” value ([1]; 28-days, 40° C./75% RH) was 5.7. For the same compound, the “stimulatory response in HEK-Blue Null1 (human) cells” value (HEK-Blue Null1 cells) was “not observed”, the “stimulatory (agonist) activity for mTLR2” value (mouse TLR2) was “possesses stimulatory activity” and the “optical density (650 nm), Average” value (human TLR2; 0.12 pg/mL) was 1.362. For the same compound, the “optical density (650 nm), screenings 1-3” value (human TLR2; 0.12 pg/mL) was 1.443 and 1.313 and 1.329, the “optical density (650 nm), Average” value (human TLR2; 0.49 pg/mL) was 1.860 and the “optical density (650 nm), screenings 1-3” value (human TLR2; 0.49 pg/mL) was 1.892 and 1.785 and 1.902. The “optical density (650 nm), Average” value (human TLR2; 1.95 pg/mL) was 2.045, the “optical density (650 nm), screenings 1-3” value (human TLR2; 1.95 pg/mL) was 2.149 and 2.008 and 1.979 and the “optical density (650 nm), Average” value (human TLR2; 7.81 pg/mL) was 2.411. For the same compound, the “optical density (650 nm), screenings 1-3” value (human TLR2; 7.81 pg/mL) was 2.420 and 2.446 and 2.366, the “optical density (650 nm), Average” value (human TLR2; 31.25 pg/mL) was 2.457 and the “optical density (650 nm), screenings 1-3” value (human TLR2; 31.25 pg/mL) was 2.492 and 2.500 and 2.380. For the same compound, the “optical density (650 nm), Average” value (human TLR2; 125 pg/mL) was 2.568, the “optical density (650 nm), screenings 1-3” value (human TLR2; 125 pg/mL) was 2.608 and 2.541 and 2.555 and the “optical density (650 nm), Average” value (human TLR2; 500 pg/mL) was 2.471. For the same compound, the “optical density (650 nm), screenings 1-3” value (human TLR2; 500 pg/mL) was 2.584 and 2.404 and 2.426, the “stimulatory (agonist) activity for hTLR2” value (human TLR2; HEK-Blue hTLR2) was “possesses stimulatory activity” and the “optical density (650 nm), screenings 1-3” value (human TLR2 (hTLR2) [6]; 0.1 ng/mL) was 0.239 and 0.202 and 0.208. The “optical density (650 nm), screenings 1-3” value (human TLR2 (hTLR2) [6]; 0.31 ng/mL) was 0.116 and 0.132 and 0.137, the “optical density (650 nm), screenings 1-3” value (human TLR2 (hTLR2) [6]; 0.5 ng/mL) was 0.585 and 0.558 and 0.559 and the “optical density (650 nm), screenings 1-3” value (human TLR2 (hTLR2) [6]; 2.0 ng/mL) was 1.429 and 1.308 and 1.638. For the same compound, the “optical density (650 nm), screenings 1-3” value (human TLR2 (hTLR2) [6]; 7.8 ng/mL) was 2.187 and 2.257 and 2.302, the “optical density (650 nm), screenings 1-3” value (human TLR2 (hTLR2) [6]; 31.3 ng/mL) was 2.422 and 2.423 and 2.449 and the “optical density (650 nm), screenings 1-3” value (human TLR2 (hTLR2) [6]; 125 ng/mL) was 2.409 and 2.564 and 2.615. For the same compound, the “stimulatory response in HEK-Blue Null2 (mouse) cells” value (HEK-Blue Null2 cells) was “not observed” and the “activity at TLR2” value (human TLR2 (hTLR2) [5]) was “significant activity at TLR2”.
